Laboratory results as given in publication PMC10776900, “Identification of structural motifs critical for human G6PC2 function informed by sequence analysis and an AlphaFold2-predicted model” (Bioscience Reports, 2024).

Experiments:
human G6PC2 V219 variant [1] = biological target: T1, human G6PC2 V219 variant (Homo sapiens, UniProt Q9NQR9); assay: G6Pase activity of enzyme purified with versus without CHS; type: biochemical; settings: CHS 0.05% in solubilisation, 0.02% in later buffers, LMNG micelles; putative CRAC motif
T1 construct: purified from HEK293S (BacMam) in LMNG micelles

human G6PC2 V219 variant [2] = biological target: T1, human G6PC2 V219 variant; assay: G6Pase activity with acute addition of cholesterol to purified enzyme; type: biochemical; settings: purified without CHS, LMNG micelles; putative CRAC motif

CC(C)CCC[C@@H](C)[C@H]1CC[C@H]2[C@@H]3CC=C4C[C@@H](OC(=O)CCC(=O)O)CC[C@]4(C)[C@H]3CC[C@]12C [cholesterol hemi-succinate]
% reduction of Vmax (human G6PC2 V219 variant [1]): ~ 90%

CC(C)CCC[C@@H](C)[C@H]1CC[C@H]2[C@@H]3CC=C4C[C@@H](O)CC[C@]4(C)[C@H]3CC[C@]12C [cholesterol]
G6Pase activity with acute addition of cholesterol to purified enzyme (human G6PC2 V219 variant [2]): addition of cholesterol decreased the activity of the V219 but not the L219 variant
